Test results: patent US20230099837A1, “COMPOSITIONS AND METHODS FOR TREATING NEURODEGENERATIVE DISORDERS WITH RIPK1/RIPK3 INHIBITORS” (Arizona Board of Regents on Behalf of the University of …, priority 2020, published 2023)
“Also recorded” adds a separate entry of the source.

Experiments:
Assay type in all cases: cell-based
Phospho-MLKL (Ser358) = experiment: Western blot, phosphorylated MLKL in HT-29 cells; conditions: 100 μM, necroptosis induced 3 hrs, normalized to b-actin
Method: RIPK3 is known to activate MLKL through phosphorylation at Ser358 for necroptotic cell death (see, Sun, L. M. et al. Cell 148, 213-227 (2012)). Therefore, the amount of phosphorylated MLKL at Ser358 was used to determine if any inhibition of MLKL activation occurred.
(§1) HT-29 cells were grown as described above and plated on a 6 well plate. After incubating overnight, cells were incubated with 100 μM of noted compounds in FIG. 3 for 30 min._Necroptosis was induced in the cells for 3 hours, as described in Necroptosis flow assay section, before harvesting with 75 μL RIPA buffer system (Santa Cruz sc-24948) containing 2 mM PMSF, 1 mM Sodium Orthovanadate, and 1% final volume of protease inhibitor. Samples were_centrifuged for 10 min at 20000×g and 4° C. The supernatant was mixed with 25 μL of NuPAGE_LDS sample buffer dye 4× containing 0.1 M DTT and heated for 10 min at 90° C. SDS-PAGE_separation and membrane transfer were performed as described under the CETSA protocol. […]
(§2) The secondary Anti-rabbit IgG, HRP-linked antibody (Cell Signaling Technology #7074S) was_used at a dilution of 1:1500 in PBS-T with 5% BSA. […] Data_were quantified with ImageLab™ software. […]

RIPK1 = experiment: Western blot, total RIPK1 in HT-29 cells; conditions: 100 μM, necroptosis induced 3 hrs, normalized to b-actin
Method: (§3) If RMITC03 and RMITC09 are disrupting the protein-protein interactions between RIPK3 and MLKL, then the effect of such inhibition should be observed in the activation of MLKL. To test this, HT-29 cells were treated with 100 μM of each compound for 30 min before necroptosis induction. Cells were harvested after 3 hrs with RIPA buffer in order to determine amount of inhibition at each stage of the necroptotic signaling molecules. When comparing the amounts of RIPK1, RIPK3, and MLKL in DMSO treated necroptosis activated cells (T/S/Z) against non necroptosis activated cells (Non-treated samples), there is no statistically significant difference in the amounts of these proteins (FIG. 6A-B).
as §1, with “C.” for “C. The supernatant was mixed with 25 μL of NuPAGE_LDS sample buffer dye 4× containing 0.1 M DTT and heated for 10 min at 90° C. SDS-PAGE_separation and membrane transfer were performed as described under the CETSA protocol.”
as §2

Phospho-RIPK1 (Ser166) = experiment: Western blot, phosphorylated RIPK1 in HT-29 cells; conditions: 100 μM, necroptosis induced 3 hrs, normalized to b-actin
Text: Autophosphorylation of RIPK1 at Ser166 facilitates RIPK1 kinase activity to induce cell_death (see, Meng, H. Y. et al. Proceedings of the National Academy of Sciences of the United States of America 115, E2001-E2009 (2018)). As such, phosphorylation at Ser166 was used to detect activation of necroptosis. […] Similarly, in the non-necroptosis activated on treated sample, there is also no phosphorylated RIPK1 signal. When comparing the DMSO sample to RMITC03 and RMITC09 treated samples, there is a large amount of activated phosphorylated RIPK1 with no difference between the DMSO control and RMITC03 and RMITC09 compounds.
as §1, with “C.” for “C. The supernatant was mixed with 25 μL of NuPAGE_LDS sample buffer dye 4× containing 0.1 M DTT and heated for 10 min at 90° C. SDS-PAGE_separation and membrane transfer were performed as described under the CETSA protocol.”
as §2

MLKL = experiment: Western blot, total MLKL in HT-29 cells; conditions: 100 μM, necroptosis induced 3 hrs, normalized to b-actin
Method: as §3
as §1, with “C.” for “C. The supernatant was mixed with 25 μL of NuPAGE_LDS sample buffer dye 4× containing 0.1 M DTT and heated for 10 min at 90° C. SDS-PAGE_separation and membrane transfer were performed as described under the CETSA protocol.”
as §2

HT-29 cells = experiment: Necroptosis flow assay (Annexin V / propidium iodide staining, flow cytometry); conditions: 100 μM compound 30 min before induction with TNF-a/Z-VAD-fmk/SM-164 for 7 hours, vs DMSO
Method: Necroptosis was allowed to proceed for 7 hours (hrs) before Annexin V and propidium iodide staining and flow cytometry analysis (FIG. 3). Cells staining positive for either Annexin V or propidium iodide were quantified as necroptotic cells (FIG. 1F). […] Docking results from RMITC03 and RMITC09 indicate most interactions are driven through hydrophobic interactions with a few hydrogen bonds interacting with the backbone of the protein (FIG. 1D-E).
HT-29 cells were grown in DMEM (Corning 10-013-CV) with 10% FBS (HyClone SH3091003)_and incubated at 37° C. and 5% CO2. […] Necroptosis was induced with 25 ng/mL TNF-a (Prospec CYT-223), 20_μM Z-VAD-fmk (AdooQ Bioscience A12373), and 0.1 μM SM-164 (AdooQ Bioscience A15800) for 7 hours in an incubator at 37° C. and 5% CO2. HT-29 cells were trypsinized (Corning 25-053-CI) and washed with DPBS (Corning 21-031-CV) (see, Bundscherer, A. et al. Anticancer Research 33, 3201-3204 (2013)). Cells were processed and stained with Annexin V and propidium iodide as described by manufacturer's protocol in the eBioscience™ Annexin V-FITC Apoptosis Detection Kit (Invitrogen BMS500FI-500). Flow cytometry was performed with MACSQuant® Analyzer 10 and data was processed with Flowlogic™ flow cytometry analysis software.

Phospho-RIPK3 (Ser227) = experiment: Western blot, phosphorylated RIPK3 in HT-29 cells; conditions: 100 μM, necroptosis induced 3 hrs, normalized to b-actin
Method: As previously reported, RIPK3 activation from necroptotic stimulus can be readily and accurately measured by phosphorylation at Ser227 (see, Chen, W. Z. et al. Journal of Biological Chemistry 288, 16247-16261 (2013)).
as §1, §2

RIPK3 = experiment: Western blot, total RIPK3 in HT-29 cells; conditions: 100 μM, necroptosis induced 3 hrs, normalized to b-actin
Method: as §3
as §1, with “C.” for “C. The supernatant was mixed with 25 μL of NuPAGE_LDS sample buffer dye 4× containing 0.1 M DTT and heated for 10 min at 90° C. SDS-PAGE_separation and membrane transfer were performed as described under the CETSA protocol.”
as §2

Structure (SMILES)	phosphorylated MLKL (Ser358) compared to DMSO (Phospho-MLKL (Ser358))	amount of RIPK1 compared to DMSO (RIPK1)	phosphorylated RIPK1 (Ser166) signal compared to DMSO (Phospho-RIPK1 (Ser166))	amount of MLKL compared to DMSO (MLKL)	inhibitory effect on necroptosis (cells positive for Annexin V or propidium iodide) (HT-29 cells)	phosphorylated RIPK3 (Ser227) compared to DMSO (Phospho-RIPK3 (Ser227))	amount of RIPK3 compared to DMSO (RIPK3)
CC(C)S(=O)(=O)c1ccc2nccc(Nc3ccc4scnc4c3)c2c1 [GSK'872]	significant decrease; also recorded: lowest levels of phosphorylated MLKL	no significant difference	significant decrease; also recorded: no observable phosphorylated RIPK11 signal	no significant difference	largest inhibition of necroptosis	significant decrease; also recorded: Inhibition of activated phosphorylated RIPK3 at Ser227	no significant difference
CN1C(=O)C(Cc2c[nH]c3ccccc23)NC1=S (stereo not shown) [Nec-1]	significant decrease; also recorded: lowest levels of phosphorylated MLKL	no significant difference	significant decrease; also recorded: no observable phosphorylated RIPK11 signal	no significant difference	–	did not completely inhibit activation of phosphorylated RIPK3	no significant difference
